Measured values as given in a compilation of properties of binary mixtures (doi:10.1016/j.molliq.2014.08.031).

Assay: xn = mol fraction of the nth substance listed
Conditions: 101 kPa

CCCC[n+]1ccn(C)c1.CS(=O)(=O)[O-] + O
Conditions | electrical conductivity [S/m] | viscosity [mPa·s]
313.15 K, x2 = 0.5596 | – | 26.8
313.15 K, x2 = 0.6542 | – | 17.83
313.15 K, x2 = 0.7015 | – | 14.43
313.15 K, x2 = 0.704 | 1.07 | –
313.15 K, x2 = 0.7495 | – | 11.11
313.15 K, x2 = 0.785 | 1.89 | –
313.15 K, x2 = 0.796 | 1.98 | –
313.15 K, x2 = 0.8016 | – | 8.17
313.15 K, x2 = 0.8521 | – | 5.48
313.15 K, x2 = 0.861 | 3.55 | –
313.15 K, x2 = 0.9254 | – | 2.67
313.15 K, x2 = 0.929 | 5.27 | –
313.15 K, x2 = 0.9503 | – | 1.854
313.15 K, x2 = 0.951 | 5.76 | –
313.15 K, x2 = 0.968 | 5.4 | –
313.15 K, x2 = 0.975 | – | 1.148
314.15 K, x1 = 0.004 | 1.61 | –
314.15 K, x1 = 0.008 | 2.86 | –
314.15 K, x1 = 0.019 | 4.58 | –
314.15 K, x2 = 0.704 | 1.1 | –
314.15 K, x2 = 0.785 | 1.96 | –
314.15 K, x2 = 0.796 | 2.04 | –
314.15 K, x2 = 0.861 | 3.71 | –
314.15 K, x2 = 0.929 | 5.42 | –
314.15 K, x2 = 0.951 | 5.97 | –
314.15 K, x2 = 0.968 | 5.53 | –
315.15 K, x1 = 0.004 | 1.64 | –
315.15 K, x1 = 0.008 | 2.91 | –
315.15 K, x1 = 0.019 | 4.65 | –
315.15 K, x2 = 0.704 | 1.14 | –
315.15 K, x2 = 0.785 | 2.02 | –
315.15 K, x2 = 0.796 | 2.11 | –
315.15 K, x2 = 0.861 | 3.75 | –
315.15 K, x2 = 0.892 | 4.58 | –
315.15 K, x2 = 0.929 | 5.54 | –
315.15 K, x2 = 0.951 | 6.11 | –
316.15 K, x1 = 0.004 | 1.67 | –
316.15 K, x1 = 0.008 | 2.97 | –
316.15 K, x1 = 0.019 | 4.73 | –
316.15 K, x2 = 0.704 | 1.18 | –
316.15 K, x2 = 0.796 | 2.17 | –
316.15 K, x2 = 0.861 | 3.84 | –
316.15 K, x2 = 0.892 | 4.75 | –
316.15 K, x2 = 0.929 | 5.63 | –
316.15 K, x2 = 0.968 | 5.71 | –
317.15 K, x1 = 0.008 | 3 | –
317.15 K, x1 = 0.019 | 4.82 | –
317.15 K, x2 = 0.704 | 1.22 | –
317.15 K, x2 = 0.785 | 2.1 | –
317.15 K, x2 = 0.796 | 2.22 | –
317.15 K, x2 = 0.861 | 3.94 | –
317.15 K, x2 = 0.892 | 4.86 | –
317.15 K, x2 = 0.929 | 5.78 | –
318.15 K, x1 = 0.004 | 1.72 | –
318.15 K, x1 = 0.008 | 3.06 | –
318.15 K, x1 = 0.019 | 4.92 | –
318.15 K, x2 = 0.704 | 1.27 | –
318.15 K, x2 = 0.785 | 2.15 | –
318.15 K, x2 = 0.796 | 2.29 | –
318.15 K, x2 = 0.861 | 4.05 | –
318.15 K, x2 = 0.892 | 4.99 | –
318.15 K, x2 = 0.951 | 6.37 | –
318.15 K, x2 = 0.968 | 5.94 | –
319.15 K, x1 = 0.004 | 1.76 | –
319.15 K, x1 = 0.008 | 3.11 | –
319.15 K, x1 = 0.019 | 5.07 | –
319.15 K, x2 = 0.785 | 2.21 | –
319.15 K, x2 = 0.796 | 2.35 | –
319.15 K, x2 = 0.892 | 5.12 | –
319.15 K, x2 = 0.929 | 6.06 | –
319.15 K, x2 = 0.951 | 6.73 | –
320.15 K, x1 = 0.008 | 3.17 | –
320.15 K, x2 = 0.785 | 2.28 | –
320.15 K, x2 = 0.796 | 2.4 | –
320.15 K, x2 = 0.861 | 4.25 | –
320.15 K, x2 = 0.929 | 6.2 | –
320.15 K, x2 = 0.951 | 6.7 | –
321.15 K, x1 = 0.004 | 1.82 | –
321.15 K, x1 = 0.008 | 3.21 | –
321.15 K, x1 = 0.019 | 5.2 | –
321.15 K, x2 = 0.704 | 1.39 | –
321.15 K, x2 = 0.785 | 2.36 | –
321.15 K, x2 = 0.861 | 4.38 | –
321.15 K, x2 = 0.892 | 5.35 | –
321.15 K, x2 = 0.929 | 6.32 | –
321.15 K, x2 = 0.951 | 6.78 | –
322.15 K, x1 = 0.004 | 1.85 | –
322.15 K, x1 = 0.008 | 3.28 | –
322.15 K, x1 = 0.019 | 5.28 | –
322.15 K, x2 = 0.785 | 2.44 | –
322.15 K, x2 = 0.861 | 4.47 | –
322.15 K, x2 = 0.951 | 6.94 | –
322.15 K, x2 = 0.968 | 6.41 | –
323.15 K, x1 = 0.004 | 1.88 | –
323.15 K, x1 = 0.008 | 3.33 | –
323.15 K, x1 = 0.019 | 5.4 | –
323.15 K, x2 = 0.5596 | – | 19
323.15 K, x2 = 0.6542 | – | 12.84
323.15 K, x2 = 0.7015 | – | 10.57
323.15 K, x2 = 0.704 | 1.49 | –
323.15 K, x2 = 0.7495 | – | 8.22
323.15 K, x2 = 0.796 | 2.62 | –
323.15 K, x2 = 0.8521 | – | 4.18
323.15 K, x2 = 0.861 | 4.6 | –
323.15 K, x2 = 0.892 | 5.62 | –
323.15 K, x2 = 0.9004 | – | 2.87
323.15 K, x2 = 0.9254 | – | 2.13
323.15 K, x2 = 0.929 | 6.51 | –
323.15 K, x2 = 0.968 | 6.56 | –
323.15 K, x2 = 0.975 | – | 0.939
324.15 K, x2 = 0.704 | 1.54 | –
324.15 K, x2 = 0.785 | 2.57 | –
324.15 K, x2 = 0.796 | 2.68 | –
324.15 K, x2 = 0.861 | 4.7 | –
324.15 K, x2 = 0.929 | 6.65 | –
324.15 K, x2 = 0.951 | 7.19 | –
324.15 K, x2 = 0.968 | 6.6 | –
325.15 K, x1 = 0.004 | 1.94 | –
325.15 K, x2 = 0.785 | 2.63 | –
325.15 K, x2 = 0.861 | 4.82 | –
325.15 K, x2 = 0.892 | 5.85 | –
325.15 K, x2 = 0.951 | 7.31 | –
325.15 K, x2 = 0.968 | 6.74 | –
326.15 K, x1 = 0.008 | 3.43 | –
326.15 K, x1 = 0.019 | 5.63 | –
326.15 K, x2 = 0.704 | 1.63 | –
326.15 K, x2 = 0.785 | 2.7 | –
326.15 K, x2 = 0.796 | 2.83 | –
326.15 K, x2 = 0.861 | 4.9 | –
326.15 K, x2 = 0.892 | 5.98 | –
327.15 K, x1 = 0.004 | 1.99 | –
327.15 K, x1 = 0.008 | 3.54 | –
327.15 K, x1 = 0.019 | 5.55 | –
327.15 K, x2 = 0.785 | 2.75 | –
327.15 K, x2 = 0.796 | 2.9 | –
327.15 K, x2 = 0.892 | 6.11 | –
327.15 K, x2 = 0.968 | 6.87 | –
328.15 K, x1 = 0.004 | 2.01 | –
328.15 K, x1 = 0.008 | 3.6 | –
328.15 K, x2 = 0.704 | 1.74 | –
328.15 K, x2 = 0.785 | 2.83 | –
